Laboratory results published in patent US11407719B2, “Anti-inflammatory agents” (Resverlogix Corp., priority 2009, dated 2022).

Tests used:
[1] = tested on: VCAM-1 mRNA; assay: Quantification of hVCAM mRNA; type: cell-based, human; design: key: Active: an active compound is one that causes a ≥20% inhibition in VCAM-1 mRNA at a concentration less than or equal to 10 μM; -1 mRNA at a concentration less than or equal to 10 μM; conditions: VCAM-1 mRNA by real-time PCR; HUVECs, 1 h pretreatment, tumor necrosis factor-α stimulation 24 h; concentration ≤10 μM
Method: In this example, […] in tissue culture cells was quantitated to measure the transcriptional inhibition of hVCAM when treated with a compound of the invention.
Human umbilical vein endothelial cells (HUVECs) were plated in a 96-well plate (4.0×10^3 cells/well) in 100 μL EGM media and incubated for 24 h prior to the addition of the compound of interest. The cells were pretreated for 1 h with the test compound prior to stimulation with tumor necrosis factor-α. The cells were incubated for an additional 24 h before the cells were harvested. At time of harvest, the spent media was removed from the HUVECs and rinsed in 200 μL PBS. Cell lysis solution (70 μL) was then added the cells in each well and incubated for ˜5-10 min at room temperature, to allow for complete cell lysis and detachment. mRNA was then prepared using the “mRNA Catcher PLUS plate” (Invitrogen), according to the protocol supplied. After the last wash, as much wash buffer as possible was aspirated without allowing the wells to dry. Elution buffer (E3, 70 μL) was then added to each well. mRNA was then eluted by incubating the mRNA Catcher PLUS plate with elution buffer for 5 min at 68° C. and then immediately placing the plate on ice.
The eluted mRNA so isolated was then used in a one-step quantitative real-time PCR reaction, using components of the Ultra Sense Kit together with Applied Biosystems primer-probe mixes. Real-time PCR data was analyzed, normalizing the Ct values for hVCAM to an internal control, prior to determining the fold induction of each unknown sample, relative to the control.

[2] = tested on: hIL-6 mRNA; assay: Quantification of hIL-6 mRNA; type: cell-based, human; design: key: Active: an active compound is one that causes a ≥20% inhibition in IL-6 mRNA at a concentration less than or equal to 10 μM; conditions: IL-6 mRNA by real-time PCR; differentiated U937 cells, 1 h pretreatment, lipopolysaccharide stimulation 3 h; concentration ≤10 μM
Method: In this example, […] in tissue culture cells was quantitated to measure the transcriptional inhibition of hIL-6 when treated with a compound of the invention.
A human leukemic monocyte lymphoma cell line (U937) was plated (3.2×10^5 cells per well) in a 96-well plate in 100 μL RPMI-1640, and differentiated for 3 days prior to the addition of the compound of interest. The cells were pretreated for 1 h with the test compound prior to stimulation with lipolysaccharide from Escherichia coli. The cells were incubated at 37° C. for 3 h before the cells were harvested. At time of harvest, the spent media was removed from the cells and the cells were rinsed in 200 μL PBS. Cell lysis solution (70 μL) was added the cells in each well and incubated for 5-10 min at room temperature, to allow for complete cell lysis and detachment. mRNA was then prepared using the “mRNA Catcher PLUS plate” (Invitrogen), according to the protocol supplied. After the last wash, as much wash buffer as possible was aspirated without allowing the wells to dry. Elution buffer (E3, 70 μL) was then added to each well. mRNA was then eluted by incubating the mRNA Catcher PLUS plate with Elution Buffer for 5 min at 68° C. and then immediately placing the plate on ice.
The eluted mRNA isolated was then used in a one-step quantitative real-time PCR reaction, using components of the Ultra Sense Kit together with Applied Biosystems primer-probe mixes. Real-time PCR data was analyzed, normalizing the Ct values for hIL-6 to an internal control, prior to determining the fold induction of each unknown sample, relative to the control.

Row | SMILES | Inhibition of VCAM-1 expression [1] | Inhibition of IL-6 expression [2]
1 | COCCOc1cc(OC)cc2nc(-c3cc(C)nc(C)c3)[nH]c(=O)c12 [2-(2,6-Dimethylpyridin-4-yl)-7-methoxy-5-(2-methoxyethoxy)quinazolin-4(3H)-one] | Inactive | Active
2 | COc1cc(OC)c2c(=O)[nH]c(-c3cc(C)c(OCCN4C(=O)c5ccccc5C4=O)c(C)c3)nc2c1 [2-(2-(4-(5,7-dimethoxy-4-oxo-3,4-dihydroquinazolin-2-yl)-2,6-dimethylphenoxy)ethyl)isoindoline-1,3-dione] | Active | Active
3 | COc1cc(OC)c2c(=O)[nH]c(-c3ccc4[nH]c(CN(C)C)cc4c3)nc2c1 [2-(2-((Dimethylamino)methyl)-1H-indol-5-yl)-5,7-dimethoxyquinazolin-4(3H)-one] | Active | Active
4 | COc1cc(OC)c2c(=O)[nH]c(-c3cc(C)c(OCCN4CCCCC4)c(C)c3)nc2c1 [2-(3,5-Dimethyl-4-(2-(piperidin-1-yl)ethoxy)phenyl)-5,7-dimethoxyquinazolin-4(3H)-one] | Active | Active
5 | Cc1cc(-c2nc3cc(F)cc(F)c3c(=O)[nH]2)cc(C)c1OCCN1CCCC1 [2-(3,5-Dimethyl-4-(2-(pyrrolidin-1-yl)ethoxy)phenyl)-5,7-difluoroquinazolin-4(3H)-one] | Active | Active
6 | Cc1cc(-c2nc3cc(F)cc(N4CCCC4)c3c(=O)[nH]2)cc(C)c1OCCN1CCCC1 [2-(3,5-Dimethyl-4-(2-(pyrrolidin-1-yl)ethoxy)phenyl)-7-fluoro-5-(pyrrolidin-1-yl)quinazolin-4(3H)-one] | Active | Active
7 | COc1cc(OC)cc(-c2nc3cc(OC)cc(OC)c3c(=O)[nH]2)c1 [2-(3,5-dimethoxyphenyl)-5,7-dimethoxyquinazolin-4(3H)-one] | Active | Active
8 | COc1cc(OC)c2c(=O)[nH]c(-c3cc(C)c(OCCN4CCCC4)c(C)c3)nc2c1 [2-(3,5-dimethyl-4-(2-(pyrrolidin-1-yl)ethoxy)phenyl)-5,7-dimethoxyquinazolin-4(3H)-one] | Active | Active
9 | COc1cc(OC)c2c(=O)[nH]c(-c3cc(C)c(OCCN4CCOCC4)c(C)c3)nc2c1 [2-(3,5-dimethyl-4-(2-morpholinoethoxy)phenyl)-5,7-dimethoxyquinazolin-4(3H)-one] | Active | Active
10 | Cc1cc(-c2nc3ccccc3c(=O)[nH]2)cc(C)c1OCCN1CCOCC1 [2-(3,5-dimethyl-4-(2-morpholinoethoxy)phenyl)quinazolin-4(3H)-one] | Active | Active
11 | COc1cc(OC)c2c(=O)[nH]c(-c3ccc(N4CCCNCC4)cc3)nc2c1 [2-(4-(1,4-Diazepan-1-yl)phenyl)-5,7-dimethoxyquinazolin-4(3H)-one] | Active | Active
12 | COc1cc(OC)c2c(=O)[nH]c(-c3cc(C)c(OCCN4Cc5ccccc5C4)c(C)c3)nc2c1 [2-(4-(2-(Isoindolin-2-yl)ethoxy)-3,5-dimethylphenyl)-5,7-dimethoxyquinazolin-4(3H)-one] | Active | Active
13 | O=c1[nH]c(-c2ccc(N3CCN(CC(F)(F)F)CC3)cc2)nc2ccccc12 [2-(4-(4-(2,2,2-Trifluoroethyl)piperazin-1-yl)phenyl)quinazolin-4(3H)-one] | Inactive | Active
14 | COc1cc(OC)c2c(=O)[nH]c(-c3ccc(N4CCN(C(=O)c5cc(Cl)sc5Cl)CC4)cc3)nc2c1 [2-(4-(4-(2,5-Dichlorothiophene-3-carbonyl)piperazin-1-yl)phenyl)-5,7-dimethoxyquinazolin-4(3H)-one] | Active | Active
15 | COc1cc(OC)c2c(=O)[nH]c(-c3ccc(N4CCN(CCO)CC4)cc3)nc2c1 [2-(4-(4-(2-hydroxyethyl)piperazin-1-yl)phenyl)-5,7-dimethoxyquinazolin-4(3H)-one] | Active | Active
16 | COc1cc(OC)c2c(=O)[nH]c(-c3ccc(N4CCN(C(=O)c5ccc(F)cc5)CC4)cc3)nc2c1 [2-(4-(4-(4-Fluorobenzoyl)piperazin-1-yl)phenyl)-5,7-dimethoxyquinazolin-4(3H)-one] | Active | Active
17 | COc1cc(OC)c2c(=O)[nH]c(-c3ccc(N4CCN(C(=O)c5cnn(C)c5Cl)CC4)cc3)nc2c1 [2-(4-(4-(5-Chloro-1-methyl-1H-pyrazole-4-carbonyl)piperazin-1-yl)phenyl)-5,7-dimethoxyquinazolin-4(3H)-one] | Active | Active
18 | COc1cc(OC)c2c(=O)[nH]c(-c3ccc(N4CCN(C(=O)C5CC5)CC4)cc3)nc2c1 [2-(4-(4-(Cyclopropanecarbonyl)piperazin-1-yl)phenyl)-5,7-dimethoxyquinazolin-4(3H)-one] | Active | Active
19 | COc1cc(OC)c2c(=O)[nH]c(-c3ccc(N4CCN(C(C)=O)C(C)C4)cc3)nc2c1 (stereo not drawn) [2-(4-(4-Acetyl-3-methylpiperazin-1-yl)phenyl)-5,7-dimethoxyquinazolin-4(3H)-one] | Active | Active
20 | COc1cc(OC)c2c(=O)[nH]c(-c3ccc(N4CCN(C(C)=O)CC4)cc3)nc2c1 [2-(4-(4-Acetylpiperazin-1-yl)phenyl)-5,7-dimethoxyquinazolin-4(3H)-one] | Active | Active
21 | COc1cc(OC)c2c(=O)[nH]c(-c3ccc(N4CCN(C(=O)c5ccccc5)CC4)cc3)nc2c1 [2-(4-(4-Benzoylpiperazin-1-yl)phenyl)-5,7-dimethoxyquinazolin-4(3H)-one] | Active | Active
22 | CCCCCC(=O)N1CCN(c2ccc(-c3nc4cc(OC)cc(OC)c4c(=O)[nH]3)cc2)CC1 [2-(4-(4-Hexanoylpiperazin-1-yl)phenyl)-5,7-dimethoxyquinazolin-4(3H)-one] | Inactive | Active
23 | COc1cc(OC)c2c(=O)[nH]c(-c3ccc(N4CCN(C(=O)C(C)C)CC4)cc3)nc2c1 [2-(4-(4-Isobutyrylpiperazin-1-yl)phenyl)-5,7-dimethoxyquinazolin-4(3H)-one] | Active | Active
24 | COc1cc(OC)c2c(=O)[nH]c(-c3ccc(N4CCN(C(C)C)CC4)cc3)nc2c1 [2-(4-(4-Isopropylpiperazin-1-yl)phenyl)-5,7-dimethoxyquinazolin-4(3H)-one] | Active | Active
